Reference: US9388195B2, “Heterocyclic compound” (Takeda Pharmaceutical Company Limited, priority 2010, dated 2016)
Counter-ions that a name gives are not always drawn. Like-named read-outs stand apart in the source and are kept apart here.

Target: T1, Cdc7/Dbf4 complex (Homo sapiens, UniProt O00311)
T1 construct: Full-length Cdc7 co-expressed with full-length Dbf4; purchased Carna Biosciences (Kobe)
Assay: Measurement of Cdc7 kinase inhibitory activity (Transcreener ADP HTRF assay)
Assay type: biochemical
Description: Full-length Cdc7 co-expressed with full-length Dbf4 was purchased from Carna Biosciences (Kobe). The enzyme activity of Cdc7/Dbf4 complex was detected by homogeneous time-resolved fluorescence method Transcreener ADP assay (Cisbio Inc., MA, U.S.A.). […] Free ADP produced by ATP hydrolysis was detected by Eu^3+-Cryptate-labeled anti-ADP monoclonal antibody competitively with d2-labeled ADP, and the production amount thereof was measured. The obtained time-resolved fluorescence resonance energy transfer signal was measured by EnVision (Perkin Elmer Inc., MA, U.S.A.). The inhibitory rate (%) of the test compound to Cdc7 was calculated by the following formula. Inhibitory rate(%)=(1−(count of test compound-blank)[…](control-blank))×100
The count of the Cdc7/Dbf4 reaction mixture under compound-free conditions was taken as the control, and that under compound-free and Cdc7/Dbf4-free conditions was taken as the blank.

[1] = read-out: inhibitory rate (%) at 1 μM
[2] = read-out: inhibitory rate (%) at 1 μM, test compound 1 μM, Cdc7/Dbf4, 1.0 μm ATP, 10 μg/ml MCM2
[3] = test compound 1 μM, Cdc7/Dbf4, 1.0 μm ATP, 10 μg/ml MCM2, read-out: inhibitory rate (%) at 1 μM

T1 sequence (O00311 whole entry): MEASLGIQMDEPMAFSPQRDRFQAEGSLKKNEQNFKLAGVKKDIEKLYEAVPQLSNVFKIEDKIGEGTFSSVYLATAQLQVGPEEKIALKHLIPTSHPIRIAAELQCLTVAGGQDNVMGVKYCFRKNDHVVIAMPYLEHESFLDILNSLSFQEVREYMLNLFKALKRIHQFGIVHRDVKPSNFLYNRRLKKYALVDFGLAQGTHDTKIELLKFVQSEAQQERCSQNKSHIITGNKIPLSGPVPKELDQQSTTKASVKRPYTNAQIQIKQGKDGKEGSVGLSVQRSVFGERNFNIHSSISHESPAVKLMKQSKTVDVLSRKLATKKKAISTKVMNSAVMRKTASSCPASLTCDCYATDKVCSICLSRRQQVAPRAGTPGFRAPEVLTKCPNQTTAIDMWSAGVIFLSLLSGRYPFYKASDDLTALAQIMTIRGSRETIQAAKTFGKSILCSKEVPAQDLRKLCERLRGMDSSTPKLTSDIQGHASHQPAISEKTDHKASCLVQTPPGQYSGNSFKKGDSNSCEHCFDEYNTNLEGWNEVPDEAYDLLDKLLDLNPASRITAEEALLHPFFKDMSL
T1 sequence (Q9UBU7 whole entry partner): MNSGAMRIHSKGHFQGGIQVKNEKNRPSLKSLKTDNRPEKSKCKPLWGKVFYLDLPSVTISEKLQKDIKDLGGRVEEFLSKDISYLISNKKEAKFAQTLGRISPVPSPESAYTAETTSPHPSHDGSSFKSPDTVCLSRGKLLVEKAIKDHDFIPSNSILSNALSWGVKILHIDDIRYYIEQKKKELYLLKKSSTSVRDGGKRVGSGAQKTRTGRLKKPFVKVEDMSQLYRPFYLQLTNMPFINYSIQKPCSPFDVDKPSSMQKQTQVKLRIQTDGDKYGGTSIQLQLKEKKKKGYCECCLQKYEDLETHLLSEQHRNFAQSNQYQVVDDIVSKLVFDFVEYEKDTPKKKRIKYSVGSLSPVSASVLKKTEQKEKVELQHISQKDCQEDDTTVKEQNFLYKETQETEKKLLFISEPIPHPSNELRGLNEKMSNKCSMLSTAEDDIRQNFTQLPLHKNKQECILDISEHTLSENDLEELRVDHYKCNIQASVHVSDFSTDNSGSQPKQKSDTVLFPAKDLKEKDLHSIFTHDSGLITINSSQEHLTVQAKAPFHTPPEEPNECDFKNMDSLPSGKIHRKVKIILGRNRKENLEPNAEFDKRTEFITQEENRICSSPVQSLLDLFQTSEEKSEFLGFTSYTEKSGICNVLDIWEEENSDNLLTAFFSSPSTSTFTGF

## Cc1[nH]ncc1-c1cc2nc([C@@H]3CCCCCN3)[nH]c(=O)c2s1 [Example 102, 2-[(2S)-azepan-2-yl]-6-(5-methyl-1H-pyrazol-4-yl)thieno[3,2-d]pyrimidin-4 (3H)-one]
[1]
  inhibition at 1 µM: 95.9%

## Cc1[nH]ncc1-c1cc2nc([C@]3(C)CCCN3)[nH]c(=O)c2s1 [Example 103, 6-(5-methyl-1H-pyrazol-4-yl)-2-[(2S)-2-methylpyrrolidin-2-yl]thieno[3,2-d]pyrimidin-4 (3H)-one dihydrochloride]
[2]
  inhibition at 1 µM: 96.7%

## Cc1[nH]ncc1-c1cc2nc(C3CCCC3N)[nH]c(=O)c2s1 (single isomer, unassigned) [Example 137, 2-(2-aminocyclopentyl)-6-(5-methyl-1H-pyrazol-4-yl)thieno[3,2-d]pyrimidin-4 (3H)-one dihydrochloride]
[3]
  inhibition at 1 µM: 97%

## Cc1[nH]ncc1-c1cc2nc([C@@H]3CCCN3)[nH]c(=O)c2s1 [Example 11, 6-(5-methyl-1H-pyrazol-4-yl)-2-[(2S)-pyrrolidin-2-yl]thieno[3,2-d]pyrimidin-4 (3H)-one monotrifluoroacetate]
[2]
  inhibition at 1 µM: 103%

## Cc1[nH]ncc1-c1cc2nc([C@H]3CC=CCN3)[nH]c(=O)c2s1 [Example 146, 6-(5-methyl-1H-pyrazol-4-yl)-2-[(2R)-1,2,3,6-tetrahydropyridin-2-yl]thieno[3,2-d]pyrimidin-4 (3H)-one dihydrochloride]
[2]
  inhibition at 1 µM: 108%

## Cc1[nH]ncc1-c1cc2nc([C@H]3NC[C@H]4C[C@H]43)[nH]c(=O)c2s1 (relative stereo) [Example 87, 2-[(1R*,2S*,5S*)-3-azabicyclo[3.1.0]hex-2-yl]-6-(5-methyl-1H-pyrazol-4-yl)thieno[3,2-d]pyrimidin-4 (3H)-one dihydrochloride]
[3]
  inhibition at 1 µM: 107%

## Cc1[nH]ncc1-c1cc2nc(C3CCCC3N)[nH]c(=O)c2s1 (stereo not shown) [Example 139, 2-(2-aminocyclopentyl)-6-(5-methyl-1H-pyrazol-4-yl)thieno[3,2-d]pyrimidin-4 (3H)-one dihydrochloride]
[3]
  inhibition at 1 µM: 106%

## Cc1[nH]ncc1-c1cc2nc(C3CCCCCN3)[nH]c(=O)c2s1 (stereo not shown) [Example 79, 2-(azepan-2-yl)-6-(5-methyl-1H-pyrazol-4-yl)thieno[3,2-d]pyrimidin-4 (3H)-one]
[1]
  inhibition at 1 µM: 93.3%

## Cc1[nH]ncc1-c1cc2nc([C@@H]3C[C@@H]4CCCC[C@@H]4N3)[nH]c(=O)c2s1 [Example 78, 6-(5-methyl-1H-pyrazol-4-yl)-2-[(2S,3aS,7aS)-octahydro-1H-indol-2-yl]thieno[3,2-d]pyrimidin-4 (3H)-one]
[3]
  inhibition at 1 µM: 86.2%

## Cc1[nH]ncc1-c1cc2nc([C@@H]3CCCCN3)[nH]c(=O)c2s1 [Example 172, 6-(5-methyl-1H-pyrazol-4-yl)-2-[(2S)-piperidin-2-yl]thieno[3,2-d]pyrimidin-4 (3H)-one hydrochloride]
Test compound 1 μM, Cdc7/Dbf4, 1.0 μm ATP, 10 μg/ml MCM2, hydrochloride
  inhibitory rate (%) at 1 μM: 102%

## O=c1[nH]c(CN2CCCC2)nc2cc(-c3cn[nH]c3C(F)(F)F)sc12 [Example 143, 2-(pyrrolidin-1-ylmethyl)-6-[5-(trifluoromethyl)-1H-pyrazol-4-yl]thieno[3,2-d]pyrimidin-4 (3H)-one]
[3]
  inhibition at 1 µM: 122%

## Cc1[nH]ncc1-c1cc2nc([C@@H]3CCCCN3)[nH]c(=O)c2s1 [Example 174, 6-(5-methyl-1H-pyrazol-4-yl)-2-[(2S)-piperidin-2-yl]thieno[3,2-d]pyrimidin-4 (3H)-one]
Test compound 1 μM, Cdc7/Dbf4, 1.0 μm ATP, 10 μg/ml MCM2
  inhibitory rate (%) at 1 μM: 104%

## Cc1[nH]ncc1-c1cc2nc([C@H]3NC4CCC3CC4)[nH]c(=O)c2s1 [Example 108, 2-[(3S)-2-azabicyclo[2.2.2]oct-3-yl]-6-(5-methyl-1H-pyrazol-4-yl)thieno[3,2-d]pyrimidin-4 (3H)-one dihydrochloride]
[3]
  inhibition at 1 µM: 103%

## Cc1[nH]ncc1-c1cc2nc(CN3CC[C@H](F)C3)[nH]c(=O)c2s1 [Example 4, 2-{[(3S)-3-fluoropyrrolidin-1-yl]methyl}-6-(5-methyl-1H-pyrazol-4-yl)thieno[3,2-d]pyrimidin-4 (3H)-one]
[3]
  inhibition at 1 µM: 102%

## Cc1[nH]ncc1-c1cc2nc([C@@H]3CCC(C)(C)N3)[nH]c(=O)c2s1 [Example 76, 2-[(2S)-5,5-dimethylpyrrolidin-2-yl]-6-(5-methyl-1H-pyrazol-4-yl)thieno[3,2-d]pyrimidin-4 (3H)-one]
[1]
  inhibition at 1 µM: 106%

## Cc1[nH]ncc1-c1cc2nc([C@H]3CCCC[C@@H]3N)[nH]c(=O)c2s1 (relative stereo) [Example 129, 2-[(1R*,2R*)-2-aminocyclohexyl]-6-(5-methyl-1H-pyrazol-4-yl)thieno[3,2-d]pyrimidin-4 (3H)-one dihydrochloride]
[3]
  inhibition at 1 µM: 108%

## Cc1[nH]ncc1-c1cc2nc([C@@H]3C[C@H](C)CN3)[nH]c(=O)c2s1 [Example 92, 6-(5-methyl-1H-pyrazol-4-yl)-2-[(2S,4S)-4-methylpyrrolidin-2-yl]thieno[3,2-d]pyrimidin-4 (3H)-one dihydrochloride]
[1]
  inhibition at 1 µM: 108%

## Cc1[nH]ncc1-c1cc2nc(C3(C)CCCN3)[nH]c(=O)c2s1 (stereo not shown) [Example 82, 6-(5-methyl-1H-pyrazol-4-yl)-2-(2-methylpyrrolidin-2-yl)thieno[3,2-d]pyrimidin-4 (3H)-one dihydrochloride]
[2]
  inhibition at 1 µM: 105%

## Cc1[nH]ncc1-c1cc2nc([C@H]3NC[C@H]4C[C@H]43)[nH]c(=O)c2s1 [Example 113, 2-[(1R,2S,5S)-3-azabicyclo[3.1.0]hex-2-yl]-6-(5-methyl-1H-pyrazol-4-yl)thieno[3,2-d]pyrimidin-4 (3H)-one dihydrochloride]
[3]
  inhibition at 1 µM: 124%

## CCc1[nH]ncc1-c1cc2nc([C@@H]3CCCCN3)[nH]c(=O)c2s1 [Example 162, 6-(5-ethyl-1H-pyrazol-4-yl)-2-[(2S)-piperidin-2-yl]thieno[3,2-d]pyrimidin-4 (3H)-one dihydrochloride]
[3]
  inhibition at 1 µM: 104%

## Cc1[nH]ncc1-c1cc2nc([C@@H]3CCCN3C)[nH]c(=O)c2s1 [Example 88, 6-(5-methyl-1H-pyrazol-4-yl)-2-[(2S)-1-methylpyrrolidin-2-yl]thieno[3,2-d]pyrimidin-4 (3H)-one dihydrochloride]
[1]
  inhibition at 1 µM: 101%

## Cc1[nH]ncc1-c1cc2nc([C@H]3CCCCCN3)[nH]c(=O)c2s1 [Example 101, 2-[(2R)-azepan-2-yl]-6-(5-methyl-1H-pyrazol-4-yl)thieno[3,2-d]pyrimidin-4 (3H)-one]
[1]
  inhibition at 1 µM: 96.2%

## Cc1[nH]ncc1-c1cc2nc(C34CC(CN3)C4)[nH]c(=O)c2s1 [Example 148, 2-(2-azabicyclo[2.1.1]hex-1-yl)-6-(5-methyl-1H-pyrazol-4-yl)thieno[3,2-d]pyrimidin-4 (3H)-one hydrochloride]
[1]
  inhibition at 1 µM: 102%

## Cc1[nH]ncc1-c1cc2nc([C@H]3NC[C@@H]4C[C@@H]43)[nH]c(=O)c2s1 (relative stereo) [Example 110, 2-[(1S*,2S*,5R*)-3-azabicyclo[3.1.0]hex-2-yl]-6-(5-methyl-1H-pyrazol-4-yl)thieno[3,2-d]pyrimidin-4 (3H)-one dihydrochloride]
[3]
  inhibition at 1 µM: 100%

## Cc1[nH]ncc1-c1cc2nc(CN3CC=CCC3)[nH]c(=O)c2s1 [Example 75, 2-(3,6-dihydropyridin-1(2H)-ylmethyl)-6-(5-methyl-1H-pyrazol-4-yl)thieno[3,2-d]pyrimidin-4 (3H)-one]
[3]
  inhibition at 1 µM: 107%

## Cc1[nH]ncc1-c1cc2nc([C@@H]3NC[C@@H]4C[C@@H]43)[nH]c(=O)c2s1 [Example 112, 2-[(1S,2R,5R)-3-azabicyclo[3.1.0]hex-2-yl]-6-(5-methyl-1H-pyrazol-4-yl)thieno[3,2-d]pyrimidin-4 (3H)-one dihydrochloride]
[3]
  inhibition at 1 µM: 105%

## Cc1[nH]ncc1-c1cc2nc([C@H]3NCC[C@@H]3C)[nH]c(=O)c2s1 [Example 140, 6-(5-methyl-1H-pyrazol-4-yl)-2-[(2S,3S)-3-methylpyrrolidin-2-yl]thieno[3,2-d]pyrimidin-4 (3H)-one dihydrochloride]
[1]
  inhibition at 1 µM: 100%

## Cc1[nH]ncc1-c1cc2nc(C3C[C@@H]4CCC[C@@H]4N3)[nH]c(=O)c2s1 (stereo partly drawn) [Example 123, 6-(5-methyl-1H-pyrazol-4-yl)-2-[(3aS,6aS)-octahydrocyclopenta[b]pyrrol-2-yl]thieno[3,2-d]pyrimidin-4 (3H)-one]
[3]
  inhibition at 1 µM: 97%

## CNCc1nc2cc(-c3cn[nH]c3C)sc2c(=O)[nH]1 [Example 133, 2-[(methylamino)methyl]-6-(5-methyl-1H-pyrazol-4-yl)thieno[3,2-d]pyrimidin-4 (3H)-one dihydrochloride]
[3]
  inhibition at 1 µM: 107%

## Cc1[nH]ncc1-c1cc2nc([C@H]3CC4CCN3CC4)[nH]c(=O)c2s1 [Example 164, 2-[(2R)-1-azabicyclo[2.2.2]oct-2-yl]-6-(5-methyl-1H-pyrazol-4-yl)thieno[3,2-d]pyrimidin-4 (3H)-one trifluoroacetate]
[3]
  inhibition at 1 µM: 101%

## Cc1[nH]ncc1-c1cc2nc(C3CC=CCN3)[nH]c(=O)c2s1 (stereo not shown) [Example 136, 6-(5-methyl-1H-pyrazol-4-yl)-2-(1,2,3,6-tetrahydropyridin-2-yl)thieno[3,2-d]pyrimidin-4 (3H)-one dihydrochloride]
[2]
  inhibition at 1 µM: 91%
